The nature of this data set: recombinant UMI read abundance after kanamycin selection (control-corrected) (log10(CPM+1)); higher = more efficient recombination; extreme values may be limits of the assay; sequences stand for … in AGTGCAGAGAAAATCGGCCAGTTTTCTCTGCCTGCAGTCCGCATGCCGTGGGACCCCTTGGGTTCTAACCTGTTGCCTAGATTTATGCAGCGGACTGCCTTTCTCCCAAAGTGATAAACCGG…AGGTTGGTTTCACT; site = the 11-nt donor. In a few lines:
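Reported values are log10(CPM+1) from a pooled Escherichia coli screen of donor and donor-binding-loop pairs for the IS621 bridge recombinase. Selection used IPTG (0.07 mM) plus kanamycin, against unselected plating, each in two replicates. Recombinant UMIs were amplified across the donor–target junction, sequenced, converted to CPM, averaged over replicates and scaled by control-derived factors.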
With “AGCCTAGCATGGACCGGTTTTCCCGGTAATCCGTATTTGTG (site AGCCTAGCTAA)”, the “recombinant UMI read abundance (log10)” value was 0.0164. Turning to “AGCCTAGCATGGACCGGTTTTCCCGGTAATCCGTATTTGTG (site AGCCTAGCTCA)”, the “recombinant UMI read abundance (log10)” value amounted to 0.0603. As to “AGCCTAGCATGGACCGGTTTTCCCGGTAATCCGTATTTGTG (site AGCCTAGCTGA)”, the “recombinant UMI read abundance (log10)” value worked out at 0. With “AGCCTAGCATGGACCGGTTTTCCCGGTAATCCGTATTTGTG (site AGCCTAGCTTA)”, the “recombinant UMI read abundance (log10)” value worked out at 0.00858. With “AGCCTATCATGGACCGGTTTTCCCGGTAATCCGTATTTGTT (site AGCCTAACTAA)” the figure was 0.0449; with “AGCCTATCATGGACCGGTTTTCCCGGTAATCCGTATTTGTT (site AGCCTACCTAA)”, 0.00813. For the sequence “AGCCTATCATGGACCGGTTTTCCCGGTAATCCGTATTTGTT (site AGCCTAGCTAA)”, the “recombinant UMI read abundance (log10)” value was 0.0191.

As for “AGCCTATCATGGACCGGTTTTCCCGGTAATCCGTATTTGTT (site AGCCTATCTAA)”, the “recombinant UMI read abundance (log10)” value is 0. “AGCCTCGCATGGACCGGTTTTCCCGGTAATCCGTATTTGTA (site AGCCTCGCTTA)”: the “recombinant UMI read abundance (log10)” value was 0.57.

In the case of “AGCCTCGCATGGACCGGTTTTCCCGGTAATCCGTATTTGTT (site AGCCTAGCTAA)”, the “recombinant UMI read abundance (log10)” value worked out at 0.0107. With “AGCCTCGCATGGACCGGTTTTCCCGGTAATCCGTATTTGTT (site AGCCTCGCTAA)” the figure was 0.0635.

On to “AGCCTCGCATGGACCGGTTTTCCCGGTAATCCGTATTTGTT (site AGCCTGGCTAA)”, for which the “recombinant UMI read abundance (log10)” value is 0.00929. To “AGCCTCGCATGGACCGGTTTTCCCGGTAATCCGTATTTGTT (site AGCCTTGCTAA)” belongs 0.0107. As for “AGCCTTGCATGGACCGGTTTTCCCGGTAATCCGTATTTGAC (site AGCCTTACTGT)”, the “recombinant UMI read abundance (log10)” value amounted to 0. As to “AGCCTTGCATGGACCGGTTTTCCCGGTAATCCGTATTTGAC (site AGCCTTCCTGT)”, the “recombinant UMI read abundance (log10)” value was 0.

On to “AGCCTTGCATGGACCGGTTTTCCCGGTAATCCGTATTTGAC (site AGCCTTGCTGT)”, for which the “recombinant UMI read abundance (log10)” value came out at 1.36. Take “AGCCTTGCATGGACCGGTTTTCCCGGTAATCCGTATTTGAC (site AGCCTTTCTGT)”: the “recombinant UMI read abundance (log10)” value came out at 0. As for “AGCCTTTCATGGACCGGTTTTCCCGGTAATCCGTATTTGTC (site AGCCTTTCTGA)”, the “recombinant UMI read abundance (log10)” value amounted to 0. As to “AGCCTTTCATGGACCGGTTTTCCCGGTAATCCGTATTTGTC (site AGCCTTTCTGC)”, the “recombinant UMI read abundance (log10)” value was determined as 0. On to “AGCCTTTCATGGACCGGTTTTCCCGGTAATCCGTATTTGTC (site AGCCTTTCTGG)”, for which the “recombinant UMI read abundance (log10)” value amounted to 0. With “AGCCTTTCATGGACCGGTTTTCCCGGTAATCCGTATTTGTC (site AGCCTTTCTGT)” the figure was 0.00535; with “AGCGAGTCATGGACCGGTTTTCCCGGTAATCCGTATTTGAT (site AGCGAGTCTAT)”, 2.73; with “AGCTAACCATGGACCGGTTTTCCCGGTAATCCGTATTTGCA (site AGCTAACCTTG)”, 0.

For the sequence “AGCTAGTCATGGACCGGTTTTCCCGGTAATCCGTATTTGAG (site AGCTAGTCTCT)”, the “recombinant UMI read abundance (log10)” value is 2.57. On to “AGCTATACATGGACCGGTTTTCCCGGTAATCCGTATTTGAC (site AACTATACTGT)”, for which the “recombinant UMI read abundance (log10)” value was 0.393. For “AGCTATACATGGACCGGTTTTCCCGGTAATCCGTATTTGAC (site ACCTATACTGT)”, the “recombinant UMI read abundance (log10)” value came to 0.726.

For the sequence “AGCTATACATGGACCGGTTTTCCCGGTAATCCGTATTTGAC (site AGCTATACTGT)”, the “recombinant UMI read abundance (log10)” value was determined as 2.03. To “AGCTATACATGGACCGGTTTTCCCGGTAATCCGTATTTGAC (site ATCTATACTGT)” belongs 1.85; to “AGCTCATCATGGACCGGTTTTCCCGGTAATCCGTATTTGGG (site AGCTCAACTCC)”, 0. With “AGCTCATCATGGACCGGTTTTCCCGGTAATCCGTATTTGGG (site AGCTCACCTCC)” the figure was 0.0192; with “AGCTCATCATGGACCGGTTTTCCCGGTAATCCGTATTTGGG (site AGCTCAGCTCC)”, 0.0292; with “AGCTCATCATGGACCGGTTTTCCCGGTAATCCGTATTTGGG (site AGCTCATCTCC)”, 0.833.

Turning to “AGCTCCCCATGGACCGGTTTTCCCGGTAATCCGTATTTGGG (site AGCTCCCCTCC)”, the “recombinant UMI read abundance (log10)” value amounted to 0.111. Turning to “AGCTGAGCATGGACCGGTTTTCCCGGTAATCCGTATTTGGG (site AGCTAAGCTCC)”, the “recombinant UMI read abundance (log10)” value is 0.0048. Turning to “AGCTGAGCATGGACCGGTTTTCCCGGTAATCCGTATTTGGG (site AGCTCAGCTCC)”, the “recombinant UMI read abundance (log10)” value was 0. As to “AGCTGAGCATGGACCGGTTTTCCCGGTAATCCGTATTTGGG (site AGCTGAGCTCC)”, the “recombinant UMI read abundance (log10)” value worked out at 0.385. To “AGCTGAGCATGGACCGGTTTTCCCGGTAATCCGTATTTGGG (site AGCTTAGCTCC)” belongs 0.0451; to “AGCTGCGCATGGACCGGTTTTCCCGGTAATCCGTATTTGAA (site AGCTGCGCTTT)”, 1.4. As to “AGCTTCGCATGGACCGGTTTTCCCGGTAATCCGTATTTGAC (site AGCTTCGCTGT)”, the “recombinant UMI read abundance (log10)” value came to 1.58. Turning to “AGCTTTTCATGGACCGGTTTTCCCGGTAATCCGTATTTGAC (site AGCATTTCTGT)”, the “recombinant UMI read abundance (log10)” value was determined as 0.

As for “AGCTTTTCATGGACCGGTTTTCCCGGTAATCCGTATTTGAC (site AGCCTTTCTGT)”, the “recombinant UMI read abundance (log10)” value amounted to 0. Regarding “AGCTTTTCATGGACCGGTTTTCCCGGTAATCCGTATTTGAC (site AGCGTTTCTGT)”, the “recombinant UMI read abundance (log10)” value worked out at 0. As for “AGCTTTTCATGGACCGGTTTTCCCGGTAATCCGTATTTGAC (site AGCTTTTCTGT)”, the “recombinant UMI read abundance (log10)” value is 0.00446.

“AGGAAAACATGGACCGGTTTTCCCGGTAATCCGTATTTGCG (site AGGAAAACTCG)”: the “recombinant UMI read abundance (log10)” value worked out at 1.5. Consider “AGGAAAACATGGACCGGTTTTCCCGGTAATCCGTATTTGCG (site AGGAAGACTTG)”, for which the “recombinant UMI read abundance (log10)” value came to 0. To “AGGAAAACATGGACCGGTTTTCCCGGTAATCCGTATTTGGG (site AGGAAAACTCC)” belongs 0.592. With “AGGAACACATGGACCGGTTTTCCCGGTAATCCGTATTTGCC (site AGGAACACTGG)” the figure was 3.08. Take “AGGAACACATGGACCGGTTTTCCCGGTAATCCGTATTTGCC (site AGGAAGACTTG)”: the “recombinant UMI read abundance (log10)” value was found to be 0.

On to “AGGAAGACATGGACCGGTTTTCCCGGTAATCCGTATTTGCT (site AGGAAGACTAG)”, for which the “recombinant UMI read abundance (log10)” value stood at 2.25. On to “AGGAAGACATGGACCGGTTTTCCCGGTAATCCGTATTTGCT (site AGGAAGACTCG)”, for which the “recombinant UMI read abundance (log10)” value amounted to 0.519.

As for “AGGAAGACATGGACCGGTTTTCCCGGTAATCCGTATTTGCT (site AGGAAGACTGG)”, the “recombinant UMI read abundance (log10)” value was 0.

For the sequence “AGGAAGACATGGACCGGTTTTCCCGGTAATCCGTATTTGCT (site AGGAAGACTTG)”, the “recombinant UMI read abundance (log10)” value was 1.46.

The values are drawn from the supplement of paper PMC11208160.
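Note: IS621 bridge recombinase in Escherichia coli cells against a fixed T5 target plasmid.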
